Test results published in US7320984B2, “Remedies or preventives for urinary frequency or urinary incontinence and morphinan derivatives having nitrogen-containing heterocyclic group” (Toray Industries, Inc., priority 2002, dated 2008).

What follows are molecules tested on rhythmic bladder contractions in rats (assay: Inhibitory effect against rhythmic bladder contractions in rats). Conditions: anesthetized female SD rats, intravenous, dose 0.003 mg/kg body weight.
Type: in vivo
Procedure: Inhibitory Effect Against Rhythmic Bladder Contractions in Rats
Female SD rats were anesthetized with an intraperitoneal administration of urethane (1.0 g/kg). A polyethylene tube was inserted from the urethra to the bladder and the tube was fixed by ligation. Then physiological saline was appropriately infused (infusion rate: about 0.2 ml/min., maximum: about 1.5 ml/animal) through the tube to cause rhythmic bladder contractions. The rhythmic bladder contractions were monitored by measuring the intravesical pressure through a polyethylene tube inserted into the bladder. After confirming that stable rhythmic bladder contractions occurred at least 10 times, a vehicle containing a prescribed dose of a test compound was intravenously administration at a dose of 1 ml/kg. In cases where the intravesical pressure, within 10 minutes after the administration of the test compound, decreased to 50% or less of the intravesical pressure immediately […] the administration, the test compound was judged as having inhibitory effect against urinary bladder contractions, and the time period until the intravesical pressure returned to more than 50% was defined as inhibitory time of rhythmic bladder contractions. As the vehicle for administration, physiological saline was used for test compounds 4, 7, 8, 9, 10, 13, 29, 30, 31, 33, 34, 75, 76, 79, 80, 81, 82, 84, 89, 90, 91, 93, 94, 95, 110 and 111, aqueous 10% dimethylsulfoxide (DMSO) solution was used for test compounds 11, 12, 14, 15, 16, 17, 18, 20, 21, 23, 28, 46, 47, 50, 55, 56, 57, 58, 59, 60, 61, 62, 63, 64, 65, 66, 68, 69, 70, 71, 72, 73, 74, 77, 78, 83, 85, 86, 87, 88, 92, 96, 97, 98, 99, 100, […], 103, 104, 105, 106, 107, 108 and […], aqueous 20% dimethylsulfoxide (DMSO) solution was used for test compounds 1, 2, 67 and 101, and aqueous 5% xylitol solution was used for test compounds 5 and 35. The aqueous 10% DMSO solution, aqueous 20% DMSO solution and the aqueous 5% xylitol solution per se, which may influence on the inhibitory time of rhythmic bladder contractions, were also tested at a dose of 1 ml/kg. With any of the compounds, prolongation of the inhibitory time of rhythmic bladder contractions was observed when compared with that obtained in the group to which the vehicle alone was administered.

Compound | Mean Inhibitory Time of Rhythmic Bladder Contractions [min]
O=C1C2=C(CCCC2)C(=O)N1C1CC[C@@]2(O)[C@H]3Cc4ccc(O)c5c4[C@@]2(CCN3CC2CC2)[C@H]1O5 (stereo in doubt) [Compound 72, N-(17-cyclopropylmethyl-4,5α-epoxy-3,14-dihydroxymorphinan-6α-yl)-3,4,5,6-tetrahydrophthalimide] | 26.7

Same assay, conditions: anesthetized female SD rats, intravenous, dose 0.005 mg/kg body weight

Compound | Mean Inhibitory Time of Rhythmic Bladder Contractions [min]
O=C1c2ccccc2C(=O)N1[C@@H]1CC[C@@]2(O)[C@H]3Cc4ccc(O)c5c4[C@@]2(CCN3CC2CC2)[C@H]1O5 [Compound 11, N-(17-cyclopropylmethyl-4,5α-epoxy-3,14-dihydroxy-morphinan-6β-yl)-phthalimide] | 15.5
O=C1c2ccc(F)cc2C(=O)N1[C@@H]1CC[C@@]2(O)[C@H]3Cc4ccc(O)c5c4[C@@]2(CCN3CC2CC2)[C@H]1O5 [Compound 16, N-(17-cyclopropylmethyl-4,5α-epoxy-3,14-dihydroxy-morphinan-6β-yl)-4-fluorophthalimide] | 14.8
O=C1c2cccc(F)c2C(=O)N1[C@@H]1CC[C@@]2(O)[C@H]3Cc4ccc(O)c5c4[C@@]2(CCN3CC2CC2)[C@H]1O5 [Compound 17, N-(17-cyclopropylmethyl-4,5α-epoxy-3,14-dihydroxy-morphinan-6β-yl)-3-fluorophthalimide] | 13.2

Same assay, conditions: anesthetized female SD rats, intravenous, dose 0.01 mg/kg body weight

Compound | Mean Inhibitory Time of Rhythmic Bladder Contractions [min]
O=C1c2ccc(Cl)cc2C(=O)N1[C@@H]1CC[C@@]2(O)[C@H]3Cc4ccc(O)c5c4[C@@]2(CCN3CC2CC2)[C@H]1O5 [Compound 15, N-(17-cyclopropylmethyl-4,5α-epoxy-3,14-dihydroxy-morphinan-6β-yl)-4-chlorophthalimide] | 12.2
Cc1cccc2c1C(=O)N([C@@H]1CC[C@@]3(O)[C@H]4Cc5ccc(O)c6c5[C@@]3(CCN4CC3CC3)[C@H]1O6)C2=O [Compound 18, N-(17-cyclopropylmethyl-4,5α-epoxy-3,14-dihydroxy-morphinan-6β-yl)-3-methylphthalimide] | 13.7

Same assay, conditions: anesthetized female SD rats, intravenous, dose 0.03 mg/kg body weight

Compound | Mean Inhibitory Time of Rhythmic Bladder Contractions [min]
Cc1ccc2c(c1)C(=O)N([C@@H]1CC[C@@]3(O)[C@H]4Cc5ccc(O)c6c5[C@@]3(CCN4CC3CC3)[C@H]1O6)C2=O [Compound 12, N-(17-cyclopropylmethyl-4,5α-epoxy-3,14-dihydroxy-morphinan-6β-yl)-4-methylphthalimide] | 16.5
C=CCN1CC[C@]23c4c5ccc(O)c4O[C@H]2[C@H](N2C(=O)c4ccccc4C2=O)CC[C@@]3(O)[C@H]1C5 [Compound 13, N-(17-allyl-4,5α-epoxy-3,14-dihydroxy-morphinan-6β-yl)-phthalimide] | 11.7

Same assay, conditions: anesthetized female SD rats, intravenous, dose 0.1 mg/kg body weight

Compound | Mean Inhibitory Time of Rhythmic Bladder Contractions [min]
CN1CC[C@]23c4c5ccc(O)c4O[C@H]2[C@H](N2CCCc4ccccc42)CC[C@H]3[C@H]1C5 [Compound 1, 4,5α-epoxy-6β-tetrahydroquinolino-17-methyl-morphinan-3-ol] | 11.7
CN1CC[C@]23c4c5ccc(O)c4O[C@H]2[C@H](N2CCSc4ccccc42)CC[C@H]3[C@H]1C5 [Compound 2, 4,5α-epoxy-6β-(3,4-dihydro-2H-benzo[1,4]thiazino)-17-methyl-morphinan-3-ol] | 15.5
CN1CC[C@]23c4c5ccc(O)c4O[C@H]2[C@H](N2CCOc4ccccc42)CC[C@H]3[C@H]1C5 [Compound 4, 4,5α-epoxy-6β-(3,4-dihydro-2H-benzo [1,4]oxazino)-17-methyl-morphinan-3-ol] | 15.6
Oc1ccc2c3c1O[C@H]1[C@H](N4CCc5ccccc54)CC[C@@]4(O)[C@@H](C2)N(CCc2ccccc2)CC[C@]314 [Compound 5, 4,5α-epoxy-6β-indolino-17-phenethyl-morphinan-3,14-diol] | 9.9
CN1CCN([C@@H]2CC[C@@]3(O)[C@H]4Cc5ccc(O)c6c5[C@@]3(CCN4C)[C@H]2O6)c2ccccc21 [Compound 9, 4,5α-epoxy-6β-(3,4-dihydro-1-methyl-1H-quinoxalino)-17-methyl-morphinan-3,14-diol] | 9.1

Same assay, conditions: anesthetized female SD rats, intravenous, dose 0.3 mg/kg body weight

Compound | Mean Inhibitory Time of Rhythmic Bladder Contractions [min]
CN1C(=O)CN([C@@H]2CC[C@@]3(O)[C@H]4Cc5ccc(O)c6c5[C@@]3(CCN4C)[C@H]2O6)c2ccccc21 [Compound 8, 4-(4,5α-epoxy-3,14-dihydroxy-17-methyl-morphinan-6β-yl)-1-methyl-3,4-dihydro-1H-quinoxalino-2-one] | 6.8
CN1CC[C@]23c4c5ccc(O)c4O[C@H]2[C@H](N2CCOCc4ccccc42)CC[C@H]3[C@H]1C5 [Compound 10, 4,5α-epoxy-6β-(1,2,3,5-tetrahydro-benzo[e][1,4]oxazepino)-17-methyl-morphinan-3-ol] | 7.8
O=C1c2ccccc2CN1[C@@H]1CC[C@@]2(O)[C@H]3Cc4ccc(O)c5c4[C@@]2(CCN3CC2CC2)[C@H]1O5 [Compound 28, 2-(17-cyclopropylmethyl-4,5α-epoxy-3,14-dihydroxy-morphinan-6β-yl)-2,3-dihydro-isoisoindol-1-one] | 19.6

Same assay, conditions: anesthetized female SD rats, intravenous, dose 1.0 mg/kg body weight

Compound | Mean Inhibitory Time of Rhythmic Bladder Contractions [min]
CN1CC[C@]23c4c5ccc(O)c4O[C@H]2[C@H](N2CC(=O)Nc4ccccc42)CC[C@@]3(O)[C@H]1C5 [Compound 7, 4-(4,5α-epoxy-3,14-dihydroxy-17-methyl-morphinan-6β-yl)-3,4-dihydro-1H-quinoxalino-2-one] | 3.8
O=C1c2ccccc2C(=O)N1[C@@H]1CC[C@@]2(O)[C@H]3Cc4ccc(O)c5c4[C@@]2(CCN3)[C@H]1O5 [Compound 14, N-(4,5α-epoxy-3,14-dihydroxy-morphinan-6β-yl)-phthalimide] | 7.9
O=C1CCC(=O)N1[C@@H]1CC[C@@]2(O)[C@H]3Cc4ccc(O)c5c4[C@@]2(CCN3CC2CC2)[C@H]1O5 [Compound 20, N-(17-cyclopropylmethyl-4,5α-epoxy-3,14-dihydroxy-morphinan-6β-yl)-succinimide] | 18.1
O=C1C/C(=C\c2ccccc2)C(=O)N1[C@@H]1CC[C@@]2(O)[C@H]3Cc4ccc(O)c5c4[C@@]2(CCN3CC2CC2)[C@H]1O5 [Compound 21, N-(17-cyclopropylmethyl-4,5α-epoxy-3,14-dihydroxy-morphinan-6β-yl)-2-benzylidene-succinimide] | 19.0
O=C1C/C(=C\C2CCCCC2)C(=O)N1[C@@H]1CC[C@@]2(O)[C@H]3Cc4ccc(O)c5c4[C@@]2(CCN3CC2CC2)[C@H]1O5 [Compound 23, N-(17-cyclopropylmethyl-4,5α-epoxy-3,14-dihydroxy-morphinan-6β-yl)-2-cyclohexylmethylidene-succinimide] | 32.0
CCN(CC)C(=O)[C@@H]1CCCN1[C@@H]1CC[C@@]2(O)[C@H]3Cc4ccc(O)c5c4[C@@]2(CCN3C)[C@H]1O5 [Compound 29, 1-(4,5α-epoxy-3,14-dihydroxy-17-methyl-morphinan-6β-yl)-pyrrolidin-(2S)-carboxyl diethylamide] | 0.8
CCN(CC)C(=O)[C@@H]1CCCN1[C@H]1CC[C@H]2[C@H]3Cc4ccc(O)c5c4[C@@]2(CCN3C)[C@H]1O5 [Compound 31, 1-(4,5α-epoxy-3-hydroxy-17-methyl-morphinan-6α-yl)-pyrrolidin-(2S)-carboxyl diethylamide] | 1.0
O=C1CCCN1[C@H]1CC[C@@]2(O)[C@H]3Cc4ccc(O)c5c4[C@@]2(CCN3CC2CC2)[C@H]1O5 [Compound 34, 1-(17-cyclopropylmethyl-4,5α-epoxy-3,14-dihydroxy-morphinan-6α-yl)-pyrrolidin-2-one] | 9.2

Same assay, conditions: anesthetized female SD rats, intravenous, dose 3.0 mg/kg body weight

Compound | Mean Inhibitory Time of Rhythmic Bladder Contractions [min]
CCN(CC)C(=O)[C@H]1CCCN1[C@@H]1CC[C@@]2(O)[C@H]3Cc4ccc(O)c5c4[C@@]2(CCN3C)[C@H]1O5 [Compound 30, 1-(4,5α-epoxy-3,14-dihydroxy-17-methyl-morphinan-6β-yl)-pyrrolidin-(2R)-carboxyl diethylamide] | 2.3
CCN(CC)C(=O)C1CCCN([C@@H]2CC[C@@]3(O)[C@H]4Cc5ccc(O)c6c5[C@@]3(CCN4C)[C@H]2O6)C1 (stereo partly drawn) [Compound 33, 1-(4,5α-epoxy-3,14-dihydroxy-17-methyl-3-morphinan-6β-yl)-piperidin-3-carboxyl diethylamide] | 2.1
